# Measured values taken from PubChem BioAssay AID1259407 (Chemical Carcinogenesis Research Information System (CCRIS), 2018).
# The source made the active and inactive calls. No rule for the calls is given here.
# Test system: CCRIS mutagenicity, Ames/micronucleus/aberration tests
# Test: CCRIS mutagenicity studies
# [1] = Test System: AMES SALMONELLA TYPHIMURIUM, Strain/Indicator: TA98, Metabolic Activation: NONE, Method: PREINCUBATION
# [2] = Test System: AMES SALMONELLA TYPHIMURIUM, Strain/Indicator: TA100, Metabolic Activation: NONE, Method: PREINCUBATION
# [3] = Test System: AMES SALMONELLA TYPHIMURIUM, Strain/Indicator: TA1535, Metabolic Activation: NONE, Method: PREINCUBATION
structure (smiles),measurement,setting,value
NCCS(=O)(=O)O,mutagenic call,"Test System: AMES SALMONELLA TYPHIMURIUM, Strain/Indicator: TA97, Metabolic Activation: HAMSTER, LIVER, S-9, AROCLOR 1254 (10 OR 30%), Method: PREINCUBATION",inactive; negative
same,mutagenic call,"Test System: AMES SALMONELLA TYPHIMURIUM, Strain/Indicator: TA97, Metabolic Activation: NONE, Method: PREINCUBATION",inactive; negative
same,mutagenic call,"Test System: AMES SALMONELLA TYPHIMURIUM, Strain/Indicator: TA97, Metabolic Activation: RAT, LIVER, S-9, AROCLOR 1254 (10 OR 30%), Method: PREINCUBATION",inactive; negative
same,mutagenic call,"Test System: AMES SALMONELLA TYPHIMURIUM, Strain/Indicator: TA98, Metabolic Activation: HAMSTER, LIVER, S-9, AROCLOR 1254 (10 OR 30%), Method: PREINCUBATION",inactive; negative
same,mutagenic call,[1],inactive; negative
same,mutagenic call,"Test System: AMES SALMONELLA TYPHIMURIUM, Strain/Indicator: TA98, Metabolic Activation: RAT, LIVER, S-9, AROCLOR 1254 (10 OR 30%), Method: PREINCUBATION",inactive; negative
same,mutagenic call,"Test System: AMES SALMONELLA TYPHIMURIUM, Strain/Indicator: TA100, Metabolic Activation: HAMSTER, LIVER, S-9, AROCLOR 1254 (10 OR 30%), Method: PREINCUBATION",inactive; negative
same,mutagenic call,[2],inactive; negative
same,mutagenic call,"Test System: AMES SALMONELLA TYPHIMURIUM, Strain/Indicator: TA100, Metabolic Activation: RAT, LIVER, S-9, AROCLOR 1254 (10 OR 30%), Method: PREINCUBATION",inactive; negative
same,mutagenic call,"Test System: AMES SALMONELLA TYPHIMURIUM, Strain/Indicator: TA1535, Metabolic Activation: HAMSTER, LIVER, S-9, AROCLOR 1254 (10 OR 30%), Method: PREINCUBATION",inactive; negative
same,mutagenic call,[3],inactive; negative
same,mutagenic call,"Test System: AMES SALMONELLA TYPHIMURIUM, Strain/Indicator: TA1535, Metabolic Activation: RAT, LIVER, S-9, AROCLOR 1254 (10 OR 30%), Method: PREINCUBATION",inactive; negative
c1ccc(-c2ccccc2)cc1,mutagenic call,"Test System: AMES SALMONELLA TYPHIMURIUM, Strain/Indicator: TA97, Metabolic Activation: NONE, Method: STANDARD PLATE",inactive; negative
same,mutagenic call,"Test System: AMES SALMONELLA TYPHIMURIUM, Strain/Indicator: TA97, Metabolic Activation: RAT, LIVER, S-9, AROCLOR 1254, Method: STANDARD PLATE",inactive; negative
same,mutagenic call,[1],inactive; negative
same,mutagenic call,"Test System: AMES SALMONELLA TYPHIMURIUM, Strain/Indicator: TA98, Metabolic Activation: NONE, Method: STANDARD PLATE",inactive; negative
same,mutagenic call,"Test System: AMES SALMONELLA TYPHIMURIUM, Strain/Indicator: TA98, Metabolic Activation: RAT LIVER S-9, PHENOBARBITAL AND BETA-NAPHTHOFLAVONE, Method: PREINCUBATION",inactive; negative
same,mutagenic call,"Test System: AMES SALMONELLA TYPHIMURIUM, Strain/Indicator: TA98, Metabolic Activation: RAT, LIVER, S-9, AROCLOR 1254, Method: STANDARD PLATE",inactive; negative
same,mutagenic call,[2],inactive; negative
same,mutagenic call,"Test System: AMES SALMONELLA TYPHIMURIUM, Strain/Indicator: TA100, Metabolic Activation: NONE, Method: STANDARD PLATE",inactive; negative
same,mutagenic call,"Test System: AMES SALMONELLA TYPHIMURIUM, Strain/Indicator: TA100, Metabolic Activation: RAT LIVER S-9, PHENOBARBITAL AND BETA-NAPHTHOFLAVONE, Method: PREINCUBATION",inactive; negative
same,mutagenic call,"Test System: AMES SALMONELLA TYPHIMURIUM, Strain/Indicator: TA100, Metabolic Activation: RAT, LIVER, S-9, AROCLOR 1254, Method: STANDARD PLATE",inactive; negative
same,mutagenic call,[3],inactive; negative
same,mutagenic call,"Test System: AMES SALMONELLA TYPHIMURIUM, Strain/Indicator: TA1535, Metabolic Activation: NONE, Method: STANDARD PLATE",inactive; negative
same,mutagenic call,"Test System: AMES SALMONELLA TYPHIMURIUM, Strain/Indicator: TA1535, Metabolic Activation: RAT LIVER S-9, PHENOBARBITAL AND BETA-NAPHTHOFLAVONE, Method: PREINCUBATION",inactive; negative
same,mutagenic call,"Test System: AMES SALMONELLA TYPHIMURIUM, Strain/Indicator: TA1535, Metabolic Activation: RAT, LIVER, S-9, AROCLOR 1254, Method: STANDARD PLATE",inactive; negative
same,mutagenic call,"Test System: AMES SALMONELLA TYPHIMURIUM, Strain/Indicator: TA1537, Metabolic Activation: NONE, Method: PREINCUBATION",inactive; negative
same,mutagenic call,"Test System: AMES SALMONELLA TYPHIMURIUM, Strain/Indicator: TA1537, Metabolic Activation: NONE, Method: STANDARD PLATE",inactive; negative
same,mutagenic call,"Test System: AMES SALMONELLA TYPHIMURIUM, Strain/Indicator: TA1537, Metabolic Activation: RAT LIVER S-9, PHENOBARBITAL AND BETA-NAPHTHOFLAVONE, Method: PREINCUBATION",inactive; negative
same,mutagenic call,"Test System: AMES SALMONELLA TYPHIMURIUM, Strain/Indicator: TA1537, Metabolic Activation: RAT, LIVER, S-9, AROCLOR 1254, Method: STANDARD PLATE",inactive; negative
same,mutagenic call,"Test System: E. COLI, Strain/Indicator: WP2, Metabolic Activation: NONE, Method: STANDARD PLATE",inactive; negative
same,mutagenic call,"Test System: E. COLI, Strain/Indicator: WP2, Metabolic Activation: RAT, LIVER, S-9, AROCLOR 1254, Method: STANDARD PLATE",inactive; negative
same,mutagenic call,"Test System: E.COLI, Strain/Indicator: WP2UVRA, Metabolic Activation: NONE, Method: PREINCUBATION",inactive; negative
same,mutagenic call,"Test System: E.COLI, Strain/Indicator: WP2UVRA, Metabolic Activation: RAT LIVER S-9, PHENOBARBITAL AND BETA-NAPHTHOFLAVONE, Method: PREINCUBATION",inactive; negative
same,mutagenic call,"Test System: MOUSE LYMPHOMA, Strain/Indicator: L5178Y (TK+/TK-), Metabolic Activation: NONE, Method: SUSPENSION/PLATE",active; positive
same,mutagenic call,"Test System: MOUSE LYMPHOMA, Strain/Indicator: L5178Y (TK+/TK-), Metabolic Activation: RAT, LIVER, S-9, AROCLOR 1254, Method: SUSPENSION/PLATE",active; positive
Nc1ccc(I)cc1Cl,mutagenic call,"End Point: In vitro chromosomal aberrations, Test System: Chinese hamster lung (CHL/IU) cells, Metabolic Activation: Rat, Liver, S9, Phenobarbital and 5,6-benzoflavone",active; positive (structural changes). weak response.
same,mutagenic call,"Test System: Ames Salmonella typhimurium, Strain/Indicator: TA98, Metabolic Activation: None, Method: Preincubation",inactive; negative
same,mutagenic call,"Test System: Ames Salmonella typhimurium, Strain/Indicator: TA98, Metabolic Activation: Rat, Liver, S9, Sodium phenobarbital and 5,6-benzoflavone (10%), Method: Preincubation",inactive; negative
same,mutagenic call,"Test System: Ames Salmonella typhimurium, Strain/Indicator: TA100, Metabolic Activation: None, Method: Preincubation",inactive; negative
same,mutagenic call,"Test System: Ames Salmonella typhimurium, Strain/Indicator: TA1535, Metabolic Activation: None, Method: Preincubation",inactive; negative
same,mutagenic call,"Test System: Ames Salmonella typhimurium, Strain/Indicator: TA1535, Metabolic Activation: Rat, Liver, S9, Sodium phenobarbital and 5,6-benzoflavone (10%), Method: Preincubation",inactive; negative
same,mutagenic call,"Test System: Ames Salmonella typhimurium, Strain/Indicator: TA1537, Metabolic Activation: None, Method: Preincubation",inactive; negative
same,mutagenic call,"Test System: Ames Salmonella typhimurium, Strain/Indicator: TA1537, Metabolic Activation: Rat, Liver, S9, Sodium phenobarbital and 5,6-benzoflavone (10%), Method: Preincubation",inactive; negative
same,mutagenic call,"Test System: E. coli, Strain/Indicator: WP2uvrA/pKM101, Metabolic Activation: None, Method: Preincubation",inactive; negative
same,mutagenic call,"Test System: E. coli, Strain/Indicator: WP2uvrA/pKM101, Metabolic Activation: Rat, Liver, S9, Sodium phenobarbital and 5,6-benzoflavone (10%), Method: Preincubation",inactive; negative
